Source: the NIST ThermoML archive (doi:10.1021/acs.jced.5b00802)

Experiments:
[1] = refractive index (Na D-line) (dimensionless); xn = mol fraction of the nth substance listed; settings: 298.15 K, 100 kPa, Liquid, Standard Abbe refractometry
[2] = xn = mol fraction of the nth substance listed; settings: 298.15 K, 100 kPa, Liquid; for speed of sound: Frequency=3 MHz, Sing-around technique in a fixed-path interferometer; for mass density: Vibrating tube method
[3] = 101.33 kPa, Liquid; for speed of sound: Sing-around technique in a fixed-path interferometer; for mass density: Vibrating tube method
[4] = refractive index (Na D-line) (dimensionless); settings: 101.33 kPa, Liquid, Standard Abbe refractometry

CCCCCCN [1-hexanamine] + CN(C)C=O
Settings	mass density, [2] [kg/m3]	refractive index, [1]	speed of sound, [2] [m/s]
x2 = 0.0506	765.582	1.41613	1307.1
x2 = 0.0992	771.096	–	1310.8
x2 = 0.1725	779.897	1.41707	1316.7
x2 = 0.2548	790.546	1.41779	1324.2
x2 = 0.3476	803.611	1.4187	1333.7
x2 = 0.4461	818.861	1.4198	1345.5
x2 = 0.55	836.751	1.42107	1360.1
x2 = 0.6022	846.551	–	1368.3
x2 = 0.6558	–	1.42257	–
x2 = 0.7056	867.688	–	1387.1
x2 = 0.7573	–	1.42411	–
x2 = 0.7996	889.217	–	1406.8
x2 = 0.8492	901.602	1.42564	1418.4
x2 = 0.8982	914.549	–	1430.4
x2 = 0.953	929.99	1.42747	1444.7

CCCCCCN [1-hexanamine]
Settings	mass density, 293.15 K [kg/m3]	mass density, 298.15 K [kg/m3]	mass density, 303.15 K [kg/m3]	refractive index, 298.15 K	speed of sound, 293.15 K [m/s]	speed of sound, 298.15 K [m/s]	speed of sound, 303.15 K [m/s]
[3]	764.423	760.073	755.848	–	1324	1303.6	1283.6
[4]	–	–	–	1.41577	–	–	–

CN(C)C=O [dimethylformamide]
Settings	mass density, 293.15 K [kg/m3]	mass density, 298.15 K [kg/m3]	mass density, 303.15 K [kg/m3]	refractive index, 293.15 K	refractive index, 298.15 K	refractive index, 303.15 K	speed of sound, 293.15 K [m/s]	speed of sound, 298.15 K [m/s]	speed of sound, 303.15 K [m/s]
[3]	948.881	944.081	939.361	–	–	–	1476.8	1457.2	1438.2
[4]	–	–	–	1.43055	1.42828	1.42603	–	–	–

CCCCN [1-butanamine]
Settings	mass density, 293.15 K [kg/m3]	mass density, 298.15 K [kg/m3]	mass density, 303.15 K [kg/m3]	refractive index, 293.15 K	refractive index, 298.15 K	refractive index, 303.15 K	speed of sound, 293.15 K [m/s]	speed of sound, 298.15 K [m/s]	speed of sound, 303.15 K [m/s]
[3]	737.048	732.231	727.452	–	–	–	1268.3	1246	1224.6
[4]	–	–	–	1.4006	1.39786	1.395	–	–	–

CCCCNCCCC [dibutylamine]
Settings	mass density, 293.15 K [kg/m3]	mass density, 298.15 K [kg/m3]	mass density, 303.15 K [kg/m3]	refractive index, 293.15 K	refractive index, 298.15 K	refractive index, 303.15 K	speed of sound, 293.15 K [m/s]	speed of sound, 298.15 K [m/s]	speed of sound, 303.15 K [m/s]
[3]	759.695	755.525	751.458	–	–	–	1261.1	1241.5	1222.5
[4]	–	–	–	1.41724	1.41488	1.41253	–	–	–

CCCCNCCCC [dibutylamine] + CN(C)C=O
Settings	mass density, [2] [kg/m3]	refractive index, [1]	speed of sound, [2] [m/s]
x2 = 0.0642	761.171	–	1246.4
x2 = 0.1038	–	1.41553	–
x2 = 0.1134	765.782	–	1250.5
x2 = 0.1647	770.882	–	1255
x2 = 0.2076	–	1.41628	–
x2 = 0.2121	775.872	–	1259.5
x2 = 0.2734	782.835	–	1266.1
x2 = 0.3213	788.624	–	1271.6
x2 = 0.3608	–	1.41761	–
x2 = 0.4114	800.702	–	1283.5
x2 = 0.4526	806.766	–	1289.7
x2 = 0.4897	–	1.419	–
x2 = 0.5072	815.344	–	1298.6
x2 = 0.5574	823.977	–	1307.9
x2 = 0.5933	–	1.42034	–
x2 = 0.5996	831.688	–	1316.3
x2 = 0.6514	842.013	–	1328.1
x2 = 0.6869	849.571	–	1336.8
x2 = 0.688	–	1.42178	–
x2 = 0.7361	860.924	–	1350.4
x2 = 0.7709	–	1.42323	–
x2 = 0.7904	874.714	–	1367.5
x2 = 0.8398	–	1.42459	–
x2 = 0.8418	889.103	–	1385.9
x2 = 0.8921	904.666	–	1406.1
x2 = 0.8989	–	1.42587	–
x2 = 0.9471	923.65	–	1431
x2 = 0.9497	–	1.42706	–
x2 = 0.9738	–	1.42765	–

CCCNCCC [dipropylamine]
Settings	mass density, 293.15 K [kg/m3]	mass density, 298.15 K [kg/m3]	mass density, 303.15 K [kg/m3]	refractive index, 293.15 K	refractive index, 298.15 K	refractive index, 303.15 K	speed of sound, 293.15 K [m/s]	speed of sound, 298.15 K [m/s]	speed of sound, 303.15 K [m/s]
[3]	738.194	733.618	729.098	–	–	–	1209.4	1187.7	1167.2
[4]	–	–	–	1.40432	1.40139	1.39883	–	–	–
